{"source": "patent US20020004493A1", "about": "“Method for the treatment of apolipoprotein E related diseases” (priority 1996, published 2002)", "key": {"[1]": {"system": "toxic apoE fragments (22 kDa) on embryonic chick sympathetic neurons", "assay": "Protection of sympathetic neurons against toxic apoE fragments (vital dye survival count)", "format": "cell-based, chicken", "details": "10 min pre-incubation with compound, then toxic 22 kDa apoE fragments, overnight, read-out: C50, the concentration required to prevent 50% cell death as compared to control", "from_the_text": "The purified apoE was then digested with thrombin and the resulting fragments separated by HPLC gel filtration chromatography (Bio SEC-Bio Rad). After buffer exchange and lyophilization, the purified 22 kDa fragment was subjected to amino acid analysis. For neurotoxicity studies, lumbar sympathetic chain ganglia were isolated from embryonic day nine chicken embryos (Spafas, Inc., Roanoke, Ill.) under sterile conditions in unsupplemented Ham's F12 medium (Sigma). The dissected chains were exposed to trypsin (0.25%) for 20 minutes at 37° C. The trypsin was inactivated by addition of fetal bovine serum. The chains were washed three times with medium and then triturated with flamed Pasteur pipettes to dissociate the cells. The cells were resuspended in Neurobasal medium (Gibco) and plated into 96-well plates pretreated with poly-ornithine. Dishes were incubated at 37° C. with 5% CO2/95% air. Following overnight incubation, the cells were treated with a range of concentrations of various compounds diluted in F12 medium supplemented with 100 μM putrescine, 20 nM progesterone, 100 μg/ml human transferrin, 30 nM selenium and 1% antibiotics (penicillin-streptomycin). The neuronal cells were pre-incubated for 10 min at 37° C. with a predetermined concentration of compound. The toxic fragments were then added to the culture medium while controls used the corresponding vehicle without the toxic fragments. After overnight incubation, the cells were labeled with a vital dye (5-carboxyfluorescein diacetate, acetoxymethyl ester, Molecular Probes, Eugene, Oreg.) for 30 minutes. The wells were washed with fresh F12 medium and images of the stained cells were collected from each well using a Diaphot inverted fluorescence microscope connected to a MacIntosh IIfx computer equipped with a Framegrabber video card."}, "[2]": {"system": "apoE peptide toxicity (141-149 domain)", "details": "cited from earlier work; for effect on apoE peptide-mediated toxicity: polyanionic glycosaminoglycans"}, "[3]": {"system": "E3- or E4-derived 22 kDa apoE fragment on embryonic chick sympathetic neurons", "assay": "Effects of apoE 22 kDa peptides on sympathetic neurons in culture, with dermatan sulfate pre-incubation", "format": "cell-based, chicken", "details": "4 μM dermatan sulfate, 10 min pre-incubation; overnight exposure to E3- or E4-derived 22 kDa fragment", "method": "Since the 22 kDa fragment contains the domain associated with toxicity and corresponds to the major N-terminal proteolytic fragment of apoE, assessment of the efficacy of a compound can first be screened by measuring the inhibition of the 22 kDa toxicity in vitro. The 22 kDa thrombolytic cleavage fragment product of apoE is neurotoxic and is purified from medium of HEK cells transfected with the gene for human apoE4. Neuronal toxicity is then assessed using dissociated embryonic chick sympathetic neurons in 96 well microtiter plates. Following the addition of the fragments, the cultures are incubated overnight. Viability is then assessed by vital dye staining.\nTransfected HEK cells are cultured as previously described (LaDu, M. J., et al., J. Biol. Chem. 258:12348-54 (1983)). The apoE is concentrated from conditioned medium by ultrafiltration (10 kDa cut-off membrane, Amicon) followed by heparin column chromatography (heparin-coupled agarose beads, Sigma). […] The wells are washed with fresh F12 medium and images of the stained cells are collected from each well by using a Diaphot inverted fluorescence microscope connected to a Macintosh IIfx computer equipped with a Framegrabber video card. The number of labeled neurons is quantified from the stored images with NIH Image software (version 1.57)."}, "[4]": {"details": "Gallus gallus, Sympathetic neuron"}}, "note": "Where two headings read alike, the source gives them in different places."}
{"compound": "O=C(O)c1cc2ccccc2c(N=Nc2c(O)cc(S(=O)(=O)O)c3ccccc23)c1O", "note": "[calconcarboxylic acid]", "values": [{"measurement": "EC50", "setting": "[1]", "result": 10, "unit": "µM"}]}
{"compound": "O=S(=O)(O)c1ccc(N=Nc2ccc(N=Nc3c(O)ccc4ccccc34)c(S(=O)(=O)O)c2)cc1", "note": "[biebrich scarlet]", "values": [{"measurement": "EC50", "setting": "[1]", "result": 40, "unit": "µM"}]}
{"compound": "Cc1cc(-c2ccc(N=Nc3ccc4c(S(=O)(=O)O)cc(S(=O)(=O)O)c(N)c4c3O)c(C)c2)ccc1N=Nc1ccc2c(S(=O)(=O)O)cc(S(=O)(=O)O)c(N)c2c1O", "note": "[Evan's blue]", "values": [{"measurement": "EC50", "setting": "[1]", "result": 8, "unit": "µM"}]}
{"compound": "O=S(=O)(O)c1ccccc1N=Nc1c(S(=O)(=O)O)cc2cc(S(=O)(=O)O)c(N=Nc3ccccc3S(=O)(=O)O)c(O)c2c1O", "note": "[sulfonazo III]", "values": [{"measurement": "EC50", "setting": "[1]", "result": 45, "unit": "µM"}]}
{"compound": "pentosan sulfate [reference compound]", "values": [{"measurement": "EC50", "setting": "[1]", "result": 1.5, "unit": "µM"}]}
{"compound": "dextran sulfate [dextran sulfate (5 kDa)]", "values": [{"measurement": "EC50", "setting": "[1]", "result": 0.8, "unit": "µM"}]}
{"compound": "O=C1OC(c2ccc(O)c(S(=O)(=O)O)c2)(c2ccc(O)c(S(=O)(=O)O)c2)c2c(Br)c(Br)c(Br)c(Br)c21", "note": "[sulfobromophthalein]", "values": [{"measurement": "EC50", "setting": "[1]; [4]", "result": 32, "unit": "µM"}]}
{"compound": "CCN(Cc1cccc(S(=O)(=O)O)c1)c1ccc(C(=C2C=CC(=[N+](CC)Cc3cccc(S(=O)(=O)[O-])c3)C=C2)c2ccc(S(=O)(=O)O)cc2)cc1", "note": "[light green S.F. yellowish]", "values": [{"measurement": "EC50", "setting": "[1]", "result": 40, "unit": "µM"}]}
{"compound": "COc1cc(-c2ccc(N=Nc3ccc4c(S(=O)(=O)O)cc(S(=O)(=O)O)c(N)c4c3O)c(OC)c2)ccc1N=Nc1ccc2c(S(=O)(=O)O)cc(S(=O)(=O)O)c(N)c2c1O", "note": "[Chicago sky blue 6b]", "values": [{"measurement": "EC50", "setting": "[1]", "result": 15, "unit": "µM"}]}
{"compound": "heparan sulfate", "values": [{"measurement": "EC50", "setting": "[1]", "result": 1, "unit": "µM"}, {"measurement": "effect on apoE peptide-mediated toxicity", "setting": "[2]", "result": "ablation of peptide-mediated toxicity"}]}
{"compound": "Cc1cc(-c2ccc(/N=N/c3c(S(=O)(=O)O)cc4cc(S(=O)(=O)O)cc(N)c4c3O)c(C)c2)ccc1/N=N/c1c(S(=O)(=O)O)cc2cc(S(=O)(=O)O)cc(N)c2c1O", "note": "[trypan blue]", "values": [{"measurement": "EC50", "setting": "[1]; [4]", "result": 20, "unit": "µM"}]}
{"compound": "Cc1ccc2nc(-c3ccc(N=NNc4ccc(-c5nc6ccc(C)c(S(=O)(=O)O)c6s5)cc4)cc3)sc2c1S(=O)(=O)O", "note": "[thiazol yellow G]", "values": [{"measurement": "EC50", "setting": "[1]", "result": 25, "unit": "µM"}]}
{"compound": "Nc1c(S(=O)(=O)O)cc(Nc2ccc(Nc3nc(Cl)nc(Nc4ccccc4S(=O)(=O)O)n3)c(S(=O)(=O)O)c2)c2c1C(=O)c1ccccc1C2=O", "note": "[cibacron blue]", "values": [{"measurement": "EC50", "setting": "[1]; [4]", "result": 20, "unit": "µM"}]}
{"compound": "chondroitin sulfate", "values": [{"measurement": "effect on apoE peptide-mediated toxicity", "setting": "[2]", "result": "ablation of peptide-mediated toxicity"}]}
{"compound": "CCOc1ccc(Nc2ccc(C(=C3C=CC(=[N+](CC)Cc4cccc(S(=O)(=O)[O-])c4)C=C3C)c3ccc(N(CC)Cc4cccc(S(=O)(=O)O)c4)cc3C)cc2)cc1", "note": "[Coomassie brilliant blue G-250]", "values": [{"measurement": "EC50", "setting": "[1]", "result": 40, "unit": "µM"}]}
{"compound": "Cc1c(C2(c3cc(Br)c(O)c(Br)c3C)OS(=O)(=O)c3ccccc32)cc(Br)c(O)c1Br", "note": "[bromocresol green]", "values": [{"measurement": "EC50", "setting": "[1]", "result": 25, "unit": "µM"}]}
{"compound": "dermatan sulfate", "values": [{"measurement": "toxicity of 22 kDa apoE fragment in treated neurons", "setting": "[3]", "result": "toxicity is completely ablated"}]}
{"compound": "O=S(=O)(O)c1ccc(N=Nc2ccc(N=Nc3c(O)c(S(=O)(=O)O)cc4cc(S(=O)(=O)O)ccc34)c(S(=O)(=O)O)c2)cc1", "note": "[ponceau S]", "values": [{"measurement": "EC50", "setting": "[1]", "result": 5, "unit": "µM"}]}
{"compound": "O=C(O)C1=CC(=C(c2ccc(O)c(C(=O)O)c2)c2ccc(O)c(C(=O)O)c2)C=CC1=O", "note": "[aurintricarboxylic acid]", "values": [{"measurement": "EC50", "setting": "[1]; [4]", "result": 11, "unit": "µM"}]}
{"compound": "Cc1ccc(C(=O)Nc2ccc(S(=O)(=O)O)c3cc(S(=O)(=O)O)cc(S(=O)(=O)O)c23)cc1NC(=O)c1cccc(NC(=O)Nc2cccc(C(=O)Nc3cc(C(=O)Nc4ccc(S(=O)(=O)O)c5cc(S(=O)(=O)O)cc(S(=O)(=O)O)c45)ccc3C)c2)c1", "note": "[suramin sodium, reference compound]", "values": [{"measurement": "EC50", "setting": "[1]; [4]", "result": 5, "unit": "µM"}]}
{"compound": "E211-243: apoE peptide containing a second heparin-binding site but lacking the 141-149 sequence (GERLRARMEEMGSRTRDRLDEVKEQVAEVRAKL; UniProt P02649 229-261, looked up, fragment) [reference compound]", "values": [{"measurement": "bioactivity (toxicity) of apoE peptide", "setting": "[2]; peptide with second heparin-binding site, lacking the 141-149 sequence", "result": "inactive"}]}
{"compound": "COc1cc(-c2ccc(N=Nc3c(S(=O)(=O)O)cc4cc(S(=O)(=O)O)cc(N)c4c3O)c(OC)c2)ccc1N=Nc1c(S(=O)(=O)O)cc2cc(S(=O)(=O)O)cc(N)c2c1O", "note": "[direct blue 15]", "values": [{"measurement": "EC50", "setting": "[1]", "result": 18, "unit": "µM"}]}
{"compound": "potassium polyvinyl sulfate", "values": [{"measurement": "EC50", "setting": "[1]", "result": 0.035, "unit": "µM"}]}
{"compound": "Cc1cc(-c2ccc(N=Nc3cc(S(=O)(=O)O)c4ccccc4c3N)c(C)c2)ccc1N=Nc1cc(S(=O)(=O)O)c2ccccc2c1N", "note": "[benzopurpurin 4b]", "values": [{"measurement": "EC50", "setting": "[1]", "result": 50, "unit": "µM"}]}
{"compound": "O=S(=O)(O)c1ccc2c(N=Nc3ccc(S(=O)(=O)O)c4ccccc34)c(O)c(S(=O)(=O)O)cc2c1", "note": "[amaranth]", "values": [{"measurement": "EC50", "setting": "[1]", "result": 25, "unit": "µM"}]}
{"compound": "O=S1(=O)OC(c2cc(Br)c(O)c(Br)c2)(c2cc(Br)c(O)c(Br)c2)c2ccccc21", "note": "[bromophenol blue]", "values": [{"measurement": "EC50", "setting": "[1]", "result": 16, "unit": "µM"}]}
{"compound": "Nc1c(/N=N/c2ccc(-c3ccc(/N=N/c4cc(S(=O)(=O)O)c5ccccc5c4N)cc3)cc2)cc(S(=O)(=O)O)c2ccccc12", "note": "[congo red]", "values": [{"measurement": "EC50", "setting": "[1]; [4]", "result": 25, "unit": "µM"}]}
{"compound": "heparin [reference compound]", "values": [{"measurement": "effect on apoE peptide-mediated toxicity", "setting": "[2]", "result": "ablation of peptide-mediated toxicity"}]}
{"compound": "aniline blue", "values": [{"measurement": "EC50", "setting": "[1]", "result": 25, "unit": "µM"}]}
{"compound": "CCOc1ccc(Nc2ccc(C(=C3C=CC(=[N+](CC)Cc4cccc(S(=O)(=O)[O-])c4)C=C3)c3ccc(N(CC)Cc4cccc(S(=O)(=O)O)c4)cc3)cc2)cc1", "note": "[Coomassie brilliant blue R-250]", "values": [{"measurement": "EC50", "setting": "[1]", "result": 35, "unit": "µM"}]}
{"compound": "O=S(=O)(O)c1ccc(N=C2C=CC(=C(c3ccc(Nc4ccc(S(=O)(=O)O)cc4)cc3)c3ccc(Nc4ccc(S(=O)(=O)O)cc4)cc3)C=C2)cc1", "note": "[methyl blue]", "values": [{"measurement": "EC50", "setting": "[1]", "result": 20, "unit": "µM"}]}
